| SMILES | melting point [°C] |
| --- | --- |
| CC(C)CC(C(=O)O)c1cc(Cl)c(-c2ccc(Cl)cc2)c(OCC2CC2)c1 (configuration not stated) | 52 to 53 |
| CC1SC(=O)NN=C1c1ccc2c(c1)C(=NN(C)c1ccccc1)C(=O)N2 (configuration not stated) | 260 |
| Cc1cc2[nH]c3ccncc3c(=O)n2n1 | > 300 |
| CCn1c(=O)c2c(nc(/C=C/c3cc(O)c4c(c3)OCO4)n2C)n(CC)c1=O | 265 to 268 |
| O=C1NCC(Cc2ccccc2C(F)(F)F)O1 (configuration not stated) | 142 to 143 |
| CCCCNC(=O)NS(=O)(=O)c1c(Cl)cccc1S(=O)(=O)N(C)C | 107 to 115 |
| CC1(C)Oc2ccc(C(N)=O)cc2[C@H](NCCc2ccccc2)[C@H]1O (relative stereo) | 162 |
| CONC(=O)NC1CCCc2sccc21 (configuration not stated) | 138 |
| COc1ccc(-c2[nH]c(C(N)(C(F)(F)F)C(F)(F)F)nc2-c2ccc(F)cc2)cc1 | 123 to 124 |
| O=C(O)c1csnc1-c1ccc(C(F)(F)F)cc1 | 195 to 196 |
| CN(C)c1ccc(NC(=O)N(CC2CCCCC2)C[C@H]2CCC[C@H](CN(CC3CCCCC3)C(=O)Nc3ccc(N(C)C)cc3)C2)cc1 (relative stereo) | 136 to 140 |
| S=C=Nc1ccc(-c2nc(-c3ccco3)no2)cc1 | 136 to 137 |
| CCOC(=O)c1c(Cn2cncn2)nc2sc3c(c2c1-c1cccc(OC)c1OC)CCCN3C(=O)OCc1ccccc1 | 184 to 185 |
| COc1ccc(CNC(=O)N(C)O)cc1OC | 132 to 133 |
| CC(C)(O)Cn1cnc2c1c1ccccc1n1nnnc21 | 246 to 247 |
| Cc1c(C)c2c(c(C)c1Br)OCC2c1ccc(C(C)C)cc1 (configuration not stated) | 56 to 57 |
| COc1ccc2c(c1OC)C1(COc3cc4c(cc31)OCCO4)C(=O)N2Cc1ccc(C(F)(F)F)o1 (configuration not stated) | 62 to 65 |
| Cc1ccc2ncc(CSc3ccc([N+](=O)[O-])cc3)n2c1 | 127 to 128 |
| N#CCc1ccc2onc(-c3ccc(Cl)cc3)c2c1 | 118 |
| CN1C(=O)CNC(c2cccc(Cl)c2)c2cc(C(O)(c3ccc(Cl)cc3)c3cncn3C)ccc21 (configuration not stated) | 208 |
| CCOC(=O)Nc1ccc(N(CC)CC)cc1 | 31 to 33 |
| Cc1nn(-c2ccc3cc(-c4ccc(C(=O)Cl)cc4)oc3c2)nc1-c1ccccc1 | 275 |
| Cc1c(-c2ccc(F)cc2)[nH]c(N2CCOCC2)c1C#N | 245 to 247 |
| CC(C)(C)c1csc(C(C#N)=C(O)c2c(F)cccc2F)n1 | 207 to 209 |
| CC1(c2ccccc2)OC(=O)COC1=O (configuration not stated) | 90 to 91 |

| SMILES | melting point [°C] |
| --- | --- |
| N#Cc1nn(-c2c(Cl)cc(C(F)(F)F)cc2Cl)c(N)c1SC(F)(F)F | 163 |
| O=[N+]([O-])c1cc(S(=O)(=O)C(F)(F)F)c(-c2ccc(Cl)cc2)[nH]1 | 174 to 180 |
| O=C(Nc1ccc(N2CCN(C(=O)Nc3ccc(OCCO)cc3C(F)(F)F)CC2)cc1)Nc1cccc2c1OCC2 | 218 to 220 |
| O=C(Oc1ccccc1)c1ccc(O)cc1O | 135 to 137 |
| Cc1cc(C#CC2CC2)cc(C)c1Oc1ccc([N+](=O)[O-])c(Nc2ccc(C#N)cc2)n1 | 188 to 192 |
| CCOC(=O)CNC(=O)Oc1cccc2ccc(C)nc12 | 118 to 120 |
| COc1cc2c(cc1Nc1ncc(C(F)(F)F)c(Nc3ccc(N4CCOCC4)cc3OC)n1)CCOC(=O)N2C | 232 to 234 |
| COc1cc([N+](=O)[O-])ccc1S(=O)(=O)n1c(=O)n(C2CCCCC2)c2cc(Cl)ccc21 | 185 |
| O=C(O)CNC(=O)C(Cc1ccccc1)P(=O)(O)O (configuration not stated) | 250 |
| Cc1nc(C)c(C(C)(O)c2cccnc2)s1 (configuration not stated) | 108 to 109 |
| CC(C)OC(=O)C=Cc1ccc(N)cc1 | 78 to 80 |
| CCC(CC)Nc1nc2c(c(-c3c(C)cc(C)cc3C)cn2C)c(=O)n1C | 174 to 176 |
| CNC1=NS(=O)N=C1NCCSCc1csc(NC(=N)N)n1 (configuration not stated) | 175 to 177 |
| O=C1CCOC(N2CCN=C(c3ccccc3Cl)c3cc(Cl)ccc32)=N1 | 124 to 135 |
| Fc1ccccc1CO[C@H]1CO[C@@H](c2ccccc2)OC1 | 65 to 67 |
| CCCCc1ccc(-c2ccc(CCc3ccc(F)cc3)cc2)c(F)c1 | 35 |
| CC(C)CCc1c(-c2ccc(S(N)(=O)=O)cc2)cnn(-c2ccc(F)c(Cl)c2)c1=O | 154 to 156 |
| CC(C)Cn1c(CO)c(-c2ccccc2)c2cc(Br)ccc2c1=O | 176 to 177 |
| CCOC(=O)/C=C/c1cn(Cc2ccc(OCc3nc(-c4ccco4)oc3C)cc2)nc1OCc1ccc(OCc2nc(-c3ccco3)oc2C)cc1 | 138 to 139 |
| COc1cc2c(CC#N)c[nH]c2cc1F | 97 to 98 |
| CNCC(O)C1=CC2(CCCC2)c2ccccc21 (configuration not stated) | 75 to 77 |
| COc1ccc2nc(COc3ccc(CC(C)C(N)=S)cc3)n(C)c2c1 (configuration not stated) | 204 to 206 |
| O=C1c2ccccc2CN1C1CCN(c2ccc(C(OCc3ccncc3)c3ccccc3)cc2)CC1 (configuration not stated) | 77 to 81 |
| COc1cc2c(cc1-c1cc(-c3ccc(C#N)cc3)on1)C(C)(C)CCC2(C)C | 202 to 203 |
| Oc1cc2c(cc1O)OCC(c1ccc(F)cc1)C2 (configuration not stated) | 135 to 137 |

Other lines, results leading:

| melting point [°C] | SMILES |
| --- | --- |
| 220 to 222 | O=C1CC(c2cccc(-n3ccnc3)c2)=Nc2cc(OCCO)c(C#Cc3ccc(F)cc3)cc2N1 |
| 86 to 88 | COc1ccccc1OCC1(COc2ccccc2OC)NCCS1 |
| 173 to 175 | COc1ccc2cccc(C(O)CNC(C)=O)c2c1 (configuration not stated) |
| 126 | CCc1nnc(-c2cccc([N+](=O)[O-])c2)n1-c1ccc(OC)cc1 |
| 202 | O=C(Nc1ccc2cc(CN3CCCCCC3)cnc2c1)c1ccc(-c2ccc(F)cc2)cc1 |
| 176 to 177 | COc1ccc(-c2cc(Nn3cnnc3)ccc2C#N)cc1 |
| 133 | O=C1NC(=O)C(Cc2ccc(OCCOc3ccccc3)cc2)S1 (configuration not stated) |
| > 305 | Cc1c(C#N)c(=O)[nH]c(=O)n1Nc1c(Cl)cc(Cl)cc1Cl |
| 33 to 34 | CC(C)(C)c1ccc(/C=C/CO[Si](C)(C)C(C)(C)C)cc1[N+](=O)[O-] |
| 207 to 209 | O=C1c2cccc3c(Cl)ccc(c23)C(=O)N1CCN1CCC(c2noc3cc(F)ccc23)CC1 |
| 174 to 175 | O=C(O)c1cc2c(s1)C(=O)CCC2 |
| 221 to 223 | Nc1cc(O)nn1-c1c(Cl)cc(Cl)cc1Cl |
| 105 to 107 | Cc1ccnc2c1C(=O)CC(c1cccs1)C2 (configuration not stated) |
| 154 | OP(O)C(NC(c1ccccc1)c1ccccc1)c1c[nH]c2ccccc12 (configuration not stated) |
| 133 to 135 | O=Cc1ccc(OCC(F)(F)F)c(O)c1 |
| 198 to 201 | CCCCOc1ccc(S(C)(=O)=O)cc1C(=O)Nc1c(C(N)=O)nn(C2CN(C(C)C)C2)c1CC |
| 70 to 73 | O=C1CC2(CCCC2)C1(Cl)CC(Cl)(Cl)Cl (configuration not stated) |
| 106 to 108 | Nc1cccc(S(=O)(=O)NC(=O)C(F)(F)F)c1 |
| 56 | CCn1ncc2c(Cl)c(CO)cnc21 |
| 122 to 125 | CC(=Cc1ccc(F)c(F)c1)C(=O)O |
| 153 to 155 | Cc1c(-c2ccccc2)[nH]c(=O)n1C1CCN(CCc2ccccc2)CC1 |
| 179 | CC1NC2=NCCN2C1c1ccccc1 (configuration not stated) |
| 168 to 170 | Cc1oc(=O)oc1COC(=O)c1oc2cccc(O)c2c1C |
| 135 | CC[C@@H](CN1CCCc2cc(Br)ccc21)NS(=O)(=O)c1c(C)cc(C)cc1C |
| 134 | COCCOc1ccn(O)c(=O)c1 |
| 136 to 138 | c1ccc(C(OC2CCN(CCCNc3ccc4ncnn4n3)CC2)c2ccccc2)cc1 |

| melting point [°C] | SMILES |
| --- | --- |
| 179 to 181 | COc1ccc(S(=O)(=O)N2CCc3cccc(-c4cccnc4)c32)cc1 |
| 130 | CC(C)(C)OC(=O)c1nc(-c2ccc(Cl)cc2Cl)n(-c2ccc(Cl)cc2)c1S(C)(=O)=O |
| 67 to 75 | CC(C)c1cccc(C(C)C)c1NC(=S)NC1CCCC(C(F)(F)F)C1 (configuration not stated) |
| 101 to 102 | CCCN(CCC(N)=O)CCC(N)=O |
| 152 to 153 | CC(C)(NC(=O)C(CO)NC(=O)c1ccccc1)c1ccccc1 (configuration not stated) |
| 82 to 83 | Cc1ccc(S(=O)(=O)OCC2CCc3sc(C(C)C)nc3C2)cc1 (configuration not stated) |
| 96 to 98 | O=C1CC(c2ccc(Cl)cc2)Oc2ccccc21 (configuration not stated) |
| 175 to 176 | O=c1c(-c2ccccc2)c(-c2ccccc2)sn1-c1ccccc1 |
| 143 to 144 | O=[N+]([O-])c1ccc(Br)cc1CS(=O)(=O)c1ccccc1 |
| 98 to 100 | O=c1c2cnc(N3CCOCC3)nc2sn1CCN1CCCCC1 |
| 121 | CC(C)c1ccc(N(Cc2ccc(N(C)C)cc2)C(=O)C2CCCc3ccccc32)cc1 (configuration not stated) |
| 199 | CN(C)CC(=O)NCc1cccc(-c2csc(N=C(N)N)n2)n1 |
| 182 | COc1cc(CCc2ccccc2OCc2ccccc2)ncc1C(=O)O |
| 141 | CSc1ccc(-c2nn(Cc3ccccc3)c(=O)cc2-c2ccc(F)cc2)cc1 |
| 218 | NS(=O)(=O)c1ccc(CCN2C(=O)c3ccccc3C2c2ccccc2)cc1 (configuration not stated) |
| 186 | O=[N+]([O-])c1ccc(N2CCN(CCCN3c4cccc5cccc(c45)S3(=O)=O)CC2)cc1 |
| 183 to 185 | COC(=O)c1ccc(NS(=O)(=O)c2ccc(F)cc2)cn1 |
| 194 to 196 | CCCCOc1cc2c(cc1C=Cc1ccc(C(=O)O)cc1)C(C)(C)CCC2(C)C |
| 191 to 192 | COc1cc(Cl)c(N=C=S)cc1C(=O)Nc1c(C)cccc1C |
| 138 | CC(=O)NCC1CNC(=O)O1 (configuration not stated) |
| 155 | O=C1c2ccccc2C(O)N1CCCN1CCN(c2ccc(F)cc2)CC1 (configuration not stated) |
| 132 to 134 | CNC1=CC(=O)N(C)C1 |
| 167 to 170 | CC(C)(C)C(NC(=O)c1ccc(Cl)cc1)NC(=NC#N)Nc1cccc(F)c1 (configuration not stated) |
| 66 to 67 | ClCc1cnn(-c2ccc(Cl)c(Cl)c2)c1 |
| 121 to 122 | O=Cc1ccc(CCc2ccc(C=O)cc2)cc1 |
| 282 to 284 | COc1cc(C(=O)O)ccc1OC(=O)c1ccc(OC)c(C23CC4CC(CC(C4)C2)C3)c1 |

Source: a melting point compilation (Tetko et al.; mined from patent text by program, amines drawn as free bases though some values may be those of a salt)
